Key:
Assay in all cases: radiometric filter-binding kinase assay, Kinase HotSpot
Details in all cases: compound 0.5 µM; ATP 10 µM
FGFR2 (human) = FGFR2 (human) (UniProt P21802)
[1] = system: FLT4 (human), P35916 [Q890H]
STK3 (human) = STK3 (human) (UniProt Q13188)
MAP4K5 (human) = MAP4K5 (human) (UniProt Q9Y4K4)
MELK (human) = MELK (human) (UniProt Q14680)
SLK (human) = SLK (human) (UniProt Q9H2G2)
PRKCB1 (human) = PRKCB1 (human) (UniProt P05771)
[2] = molecular target: TYK2 JH1 catalytic (human) (UniProt P29597)
CAMKK1 (human) = CAMKK1 (human) (UniProt Q8N5S9)
PRKD3 (human) = PRKD3 (human) (UniProt O94806)
ABL2 (human) = ABL2 (human) (UniProt P42684)
HIPK4 (human) = HIPK4 (human) (UniProt Q8NE63)
ROCK1 (human) = ROCK1 (human) (UniProt Q13464)
CAMK2B (human) = CAMK2B (human) (UniProt Q13554)
SRMS (human) = SRMS (human) (UniProt Q9H3Y6)
MET (human) = MET (human) (UniProt P08581)
CAMKK2 (human) = CAMKK2 (human) (UniProt Q96RR4)
PDGFRA (human) = PDGFRA (human) (UniProt P16234)
KDR (human) = KDR (human) (UniProt P35968)
RPS6KA1 KD1 KD2 (human) = RPS6KA1 KD1 KD2 (human) (UniProt Q15418)
SIK2 (human) = SIK2 (human) (UniProt Q9H0K1)
WNK2 (human) = WNK2 (human) (UniProt Q9Y3S1)
MAP3K14 (human) = MAP3K14 (human) (UniProt Q99558)
DYRK1B (human) = DYRK1B (human) (UniProt Q9Y463)
TNK2 (human) = TNK2 (human) (UniProt Q07912)
[3] = molecular target: JAK1 JH1 catalytic (human) (UniProt P23458)
CDK1 CCNA2 (human) = CDK1 CCNA2 (human) (UniProt P06493+P20248)
GRK4 (human) = GRK4 (human) (UniProt P32298)
EPHA2 (human) = EPHA2 (human) (UniProt P29317)
NUAK2 (human) = NUAK2 (human) (UniProt Q9H093)
CDK4 CCND1 (human) = CDK4 CCND1 (human) (UniProt P24385+P11802)
CDK5 CDK5R1 p35 (human) = CDK5 CDK5R1 p35 (human) (UniProt Q00535+Q15078)
PRKCZ (human) = PRKCZ (human) (UniProt Q05513)
STK25 (human) = STK25 (human) (UniProt O00506)
STK24 (human) = STK24 (human) (UniProt Q9Y6E0)
BLK (human) = BLK (human) (UniProt P51451)
CSF1R (human) = CSF1R (human) (UniProt P07333)
PRKCD (human) = PRKCD (human) (UniProt Q05655)
SGK2 (human) = SGK2 (human) (UniProt Q9HBY8)
EPHA5 (human) = EPHA5 (human) (UniProt P54756)
DYRK3 (human) = DYRK3 (human) (UniProt O43781)
ACVR1B (human) = ACVR1B (human) (UniProt P36896)
ACVR1B (human), sequence (P36896 whole entry, looked up): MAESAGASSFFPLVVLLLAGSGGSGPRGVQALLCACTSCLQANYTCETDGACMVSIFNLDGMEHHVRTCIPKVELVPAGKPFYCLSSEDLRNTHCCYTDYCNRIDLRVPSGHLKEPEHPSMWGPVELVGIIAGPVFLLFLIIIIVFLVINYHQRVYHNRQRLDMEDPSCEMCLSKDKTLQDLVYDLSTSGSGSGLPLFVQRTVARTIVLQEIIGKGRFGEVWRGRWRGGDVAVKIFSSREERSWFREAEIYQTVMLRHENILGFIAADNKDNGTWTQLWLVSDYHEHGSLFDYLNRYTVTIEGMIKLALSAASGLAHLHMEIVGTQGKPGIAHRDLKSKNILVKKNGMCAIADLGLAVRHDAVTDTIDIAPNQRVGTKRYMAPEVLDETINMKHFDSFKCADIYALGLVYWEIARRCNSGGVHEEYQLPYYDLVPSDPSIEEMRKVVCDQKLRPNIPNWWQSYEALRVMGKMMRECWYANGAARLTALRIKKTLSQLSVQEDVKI

WNK2 (human), sequence (Q9Y3S1 whole entry, looked up): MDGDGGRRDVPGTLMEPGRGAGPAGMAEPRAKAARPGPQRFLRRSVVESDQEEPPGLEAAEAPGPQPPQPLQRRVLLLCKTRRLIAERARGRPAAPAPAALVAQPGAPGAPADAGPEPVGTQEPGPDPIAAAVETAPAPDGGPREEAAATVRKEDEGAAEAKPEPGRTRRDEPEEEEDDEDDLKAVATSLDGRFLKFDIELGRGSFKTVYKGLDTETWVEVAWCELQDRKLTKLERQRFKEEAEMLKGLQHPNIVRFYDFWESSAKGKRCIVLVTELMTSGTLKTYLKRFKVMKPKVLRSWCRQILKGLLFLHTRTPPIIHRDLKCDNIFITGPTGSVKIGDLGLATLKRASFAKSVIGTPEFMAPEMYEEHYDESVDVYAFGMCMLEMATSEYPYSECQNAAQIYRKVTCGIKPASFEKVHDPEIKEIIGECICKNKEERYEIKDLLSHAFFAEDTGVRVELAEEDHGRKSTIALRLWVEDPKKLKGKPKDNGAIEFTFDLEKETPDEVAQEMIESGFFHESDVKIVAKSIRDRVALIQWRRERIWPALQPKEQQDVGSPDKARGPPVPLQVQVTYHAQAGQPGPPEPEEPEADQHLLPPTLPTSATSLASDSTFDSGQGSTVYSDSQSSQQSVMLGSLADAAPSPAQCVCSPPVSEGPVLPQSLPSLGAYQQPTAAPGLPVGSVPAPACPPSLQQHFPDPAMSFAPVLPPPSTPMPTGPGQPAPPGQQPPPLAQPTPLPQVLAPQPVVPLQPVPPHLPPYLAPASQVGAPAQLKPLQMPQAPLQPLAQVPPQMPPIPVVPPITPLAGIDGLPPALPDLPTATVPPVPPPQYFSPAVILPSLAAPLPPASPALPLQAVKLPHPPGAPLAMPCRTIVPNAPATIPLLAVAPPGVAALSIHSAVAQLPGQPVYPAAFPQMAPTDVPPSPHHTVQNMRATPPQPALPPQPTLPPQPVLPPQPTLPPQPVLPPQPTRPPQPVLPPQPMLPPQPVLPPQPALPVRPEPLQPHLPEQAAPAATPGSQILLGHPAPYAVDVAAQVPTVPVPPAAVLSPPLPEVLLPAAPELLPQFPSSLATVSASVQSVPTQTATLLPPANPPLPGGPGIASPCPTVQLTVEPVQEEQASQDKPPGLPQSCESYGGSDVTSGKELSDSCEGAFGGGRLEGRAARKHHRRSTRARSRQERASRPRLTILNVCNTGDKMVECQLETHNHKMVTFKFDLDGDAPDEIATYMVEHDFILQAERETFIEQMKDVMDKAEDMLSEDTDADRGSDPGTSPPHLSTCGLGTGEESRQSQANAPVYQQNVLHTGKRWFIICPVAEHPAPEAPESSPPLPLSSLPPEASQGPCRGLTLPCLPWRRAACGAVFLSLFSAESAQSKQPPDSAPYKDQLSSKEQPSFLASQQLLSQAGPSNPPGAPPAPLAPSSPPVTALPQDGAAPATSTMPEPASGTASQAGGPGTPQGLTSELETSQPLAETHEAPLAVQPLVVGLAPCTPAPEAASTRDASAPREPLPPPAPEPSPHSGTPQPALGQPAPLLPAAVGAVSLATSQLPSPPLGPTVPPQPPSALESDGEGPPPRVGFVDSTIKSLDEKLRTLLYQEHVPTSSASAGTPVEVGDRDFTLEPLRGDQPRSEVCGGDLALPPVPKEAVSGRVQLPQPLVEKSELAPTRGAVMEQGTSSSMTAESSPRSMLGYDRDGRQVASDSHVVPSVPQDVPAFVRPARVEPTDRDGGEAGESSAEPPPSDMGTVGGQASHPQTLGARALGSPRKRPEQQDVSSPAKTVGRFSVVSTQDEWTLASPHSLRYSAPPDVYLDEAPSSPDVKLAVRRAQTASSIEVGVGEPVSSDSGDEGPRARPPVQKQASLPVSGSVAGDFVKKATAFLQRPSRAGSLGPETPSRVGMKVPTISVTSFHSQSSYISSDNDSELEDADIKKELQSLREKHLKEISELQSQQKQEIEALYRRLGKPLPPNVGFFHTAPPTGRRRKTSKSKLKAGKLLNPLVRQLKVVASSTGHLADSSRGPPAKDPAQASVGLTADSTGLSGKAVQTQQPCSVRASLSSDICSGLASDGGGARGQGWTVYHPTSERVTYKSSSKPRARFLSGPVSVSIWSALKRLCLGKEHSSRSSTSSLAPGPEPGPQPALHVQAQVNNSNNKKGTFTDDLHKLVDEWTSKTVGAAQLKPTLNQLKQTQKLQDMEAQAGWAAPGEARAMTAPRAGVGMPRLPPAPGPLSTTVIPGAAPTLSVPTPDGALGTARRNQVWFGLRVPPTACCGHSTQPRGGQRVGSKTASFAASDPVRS
CSF1R (human), sequence (P07333 whole entry, looked up): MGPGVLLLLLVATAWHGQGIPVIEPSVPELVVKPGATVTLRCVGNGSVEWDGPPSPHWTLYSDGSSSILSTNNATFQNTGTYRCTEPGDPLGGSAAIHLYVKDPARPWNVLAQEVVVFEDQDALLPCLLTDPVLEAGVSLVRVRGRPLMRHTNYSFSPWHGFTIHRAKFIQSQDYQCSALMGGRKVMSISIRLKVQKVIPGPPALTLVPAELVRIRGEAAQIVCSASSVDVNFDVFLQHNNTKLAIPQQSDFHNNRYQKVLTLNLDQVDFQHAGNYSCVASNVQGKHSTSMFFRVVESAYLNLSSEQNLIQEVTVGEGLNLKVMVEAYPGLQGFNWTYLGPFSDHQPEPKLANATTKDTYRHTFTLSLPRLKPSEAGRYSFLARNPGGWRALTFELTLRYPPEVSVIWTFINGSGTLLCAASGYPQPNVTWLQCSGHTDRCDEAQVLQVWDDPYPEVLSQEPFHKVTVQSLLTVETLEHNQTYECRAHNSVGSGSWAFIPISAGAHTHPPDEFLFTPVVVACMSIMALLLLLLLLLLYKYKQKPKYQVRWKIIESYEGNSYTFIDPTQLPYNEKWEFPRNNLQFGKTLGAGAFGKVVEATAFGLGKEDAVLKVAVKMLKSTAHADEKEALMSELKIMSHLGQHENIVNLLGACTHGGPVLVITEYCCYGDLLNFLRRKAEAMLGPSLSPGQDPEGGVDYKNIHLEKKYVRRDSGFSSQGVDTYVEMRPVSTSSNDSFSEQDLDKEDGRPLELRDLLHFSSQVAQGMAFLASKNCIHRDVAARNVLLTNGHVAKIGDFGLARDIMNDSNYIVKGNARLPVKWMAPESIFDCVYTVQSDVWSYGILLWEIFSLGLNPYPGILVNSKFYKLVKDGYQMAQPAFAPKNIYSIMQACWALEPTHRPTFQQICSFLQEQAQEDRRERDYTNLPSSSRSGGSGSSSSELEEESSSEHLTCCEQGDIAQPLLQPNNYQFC
DYRK1B (human), sequence (Q9Y463 whole entry, looked up): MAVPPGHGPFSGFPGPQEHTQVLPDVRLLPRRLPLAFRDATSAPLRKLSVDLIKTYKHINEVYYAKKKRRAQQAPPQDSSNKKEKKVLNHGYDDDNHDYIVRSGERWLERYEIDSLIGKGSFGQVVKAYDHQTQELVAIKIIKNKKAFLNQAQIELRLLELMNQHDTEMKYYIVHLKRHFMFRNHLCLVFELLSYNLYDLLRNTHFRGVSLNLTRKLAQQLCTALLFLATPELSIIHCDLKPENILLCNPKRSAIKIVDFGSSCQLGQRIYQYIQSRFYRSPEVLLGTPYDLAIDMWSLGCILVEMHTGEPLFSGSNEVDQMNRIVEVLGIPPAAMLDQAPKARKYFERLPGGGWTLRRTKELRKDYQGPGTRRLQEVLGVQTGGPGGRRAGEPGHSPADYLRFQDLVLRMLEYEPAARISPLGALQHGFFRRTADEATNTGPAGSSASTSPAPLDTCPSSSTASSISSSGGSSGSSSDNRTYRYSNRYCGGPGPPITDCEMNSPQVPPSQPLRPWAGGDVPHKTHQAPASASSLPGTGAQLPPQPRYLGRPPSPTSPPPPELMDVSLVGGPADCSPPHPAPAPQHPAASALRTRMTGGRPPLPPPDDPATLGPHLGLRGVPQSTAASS
PRKCD (human), sequence (Q05655 whole entry, looked up): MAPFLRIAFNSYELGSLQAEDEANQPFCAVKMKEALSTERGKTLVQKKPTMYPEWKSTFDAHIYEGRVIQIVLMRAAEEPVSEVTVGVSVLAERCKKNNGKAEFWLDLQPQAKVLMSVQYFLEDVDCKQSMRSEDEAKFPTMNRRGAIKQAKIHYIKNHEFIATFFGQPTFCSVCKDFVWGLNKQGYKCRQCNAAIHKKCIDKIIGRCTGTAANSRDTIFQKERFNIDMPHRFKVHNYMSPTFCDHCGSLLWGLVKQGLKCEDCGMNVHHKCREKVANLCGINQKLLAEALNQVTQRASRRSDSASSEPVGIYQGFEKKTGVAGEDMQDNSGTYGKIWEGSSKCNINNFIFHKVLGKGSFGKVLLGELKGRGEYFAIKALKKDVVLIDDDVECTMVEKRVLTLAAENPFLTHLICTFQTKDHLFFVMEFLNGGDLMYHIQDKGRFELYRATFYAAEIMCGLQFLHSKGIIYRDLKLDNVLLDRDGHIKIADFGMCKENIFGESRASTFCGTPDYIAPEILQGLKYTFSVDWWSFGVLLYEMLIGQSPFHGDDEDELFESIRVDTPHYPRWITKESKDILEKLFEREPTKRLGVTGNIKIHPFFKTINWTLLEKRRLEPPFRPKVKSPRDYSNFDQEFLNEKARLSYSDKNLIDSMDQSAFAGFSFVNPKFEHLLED

CN(C)S(=O)(=O)c1ccc2c(c1)/C(=C/c1cc3c([nH]1)CCCC3)C(=O)N2
residual activity (FGFR2 (human)): 49.3%
residual activity [1]: 78.1%
residual activity (STK3 (human)): 24.3%
residual activity (MAP4K5 (human)): 3.08%
residual activity (MELK (human)): 89.1%
residual activity (SLK (human)): 23.4%
residual activity (PRKCB1 (human)): 106%
residual activity [2]: 11.4%
residual activity (CAMKK1 (human)): 65.4%
residual activity (PRKD3 (human)): 90.4%
residual activity (ABL2 (human)): 56.8%
residual activity (HIPK4 (human)): 98.8%
residual activity (ROCK1 (human)): 95.2%
residual activity (CAMK2B (human)): 70%
residual activity (SRMS (human)): 104%
residual activity (MET (human)): 92.2%
residual activity (CAMKK2 (human)): 27.3%
residual activity (PDGFRA (human)): 93.7%
residual activity (KDR (human)): 96.9%
residual activity (RPS6KA1 KD1 KD2 (human)): 68.1%
residual activity (SIK2 (human)): 86.4%
residual activity (WNK2 (human)): 101%
residual activity (MAP3K14 (human)): 94.6%
residual activity (DYRK1B (human)): 93.6%
residual activity (TNK2 (human)): 12.6%
residual activity [3]: 66.8%
residual activity (CDK1 CCNA2 (human)): 70.6%
residual activity (GRK4 (human)): 79.8%
residual activity (EPHA2 (human)): 96.5%
residual activity (NUAK2 (human)): 95.1%
residual activity (CDK4 CCND1 (human)): 107%
residual activity (CDK5 CDK5R1 p35 (human)): 76.9%
residual activity (PRKCZ (human)): 98.9%
residual activity (STK25 (human)): 79.6%
residual activity (STK24 (human)): 47.7%
residual activity (BLK (human)): 13.9%
residual activity (CSF1R (human)): 37.2%
residual activity (PRKCD (human)): 95.5%
residual activity (SGK2 (human)): 101%
residual activity (EPHA5 (human)): 85.1%
residual activity (DYRK3 (human)): 99.1%
residual activity (ACVR1B (human)): 105%

CCCCc1c(-c2ccc(OC)cc2)[nH]c2nccnc12
residual activity (FGFR2 (human)): 89.5%
residual activity [1]: 81.1%
residual activity (STK3 (human)): 87%
residual activity (MAP4K5 (human)): 63.8%
residual activity (MELK (human)): 84.4%
residual activity (SLK (human)): 76.2%
residual activity (PRKCB1 (human)): 99.4%
residual activity [2]: 38.8%
residual activity (CAMKK1 (human)): 105%
residual activity (PRKD3 (human)): 88.5%
residual activity (ABL2 (human)): 70.5%
residual activity (HIPK4 (human)): 119%
residual activity (ROCK1 (human)): 99.9%
residual activity (CAMK2B (human)): 97.6%
residual activity (SRMS (human)): 96.7%
residual activity (MET (human)): 86.8%
residual activity (CAMKK2 (human)): 79.1%
residual activity (PDGFRA (human)): 90.3%
residual activity (KDR (human)): 88.8%
residual activity (RPS6KA1 KD1 KD2 (human)): 89.8%
residual activity (SIK2 (human)): 98.4%
residual activity (WNK2 (human)): 112%
residual activity (MAP3K14 (human)): 105%
residual activity (DYRK1B (human)): 94.5%
residual activity (TNK2 (human)): 51.2%
residual activity [3]: 67.1%
residual activity (CDK1 CCNA2 (human)): 65.4%
residual activity (GRK4 (human)): 96.7%
residual activity (EPHA2 (human)): 87.9%
residual activity (NUAK2 (human)): 68%
residual activity (CDK4 CCND1 (human)): 60.4%
residual activity (CDK5 CDK5R1 p35 (human)): 48.3%
residual activity (PRKCZ (human)): 93.9%
residual activity (STK25 (human)): 90.3%
residual activity (STK24 (human)): 87.3%
residual activity (BLK (human)): 96.7%
residual activity (CSF1R (human)): 37.7%
residual activity (PRKCD (human)): 92.8%
residual activity (SGK2 (human)): 116%
residual activity (EPHA5 (human)): 91.6%
residual activity (DYRK3 (human)): 96.1%
residual activity (ACVR1B (human)): 112%

O=C(c1cc2cc(O)ccc2[nH]1)c1cc2cc(O)ccc2[nH]1
residual activity (FGFR2 (human)): 98.5%
residual activity [1]: 67.1%
residual activity (STK3 (human)): 41.4%
residual activity (MAP4K5 (human)): 28.7%
residual activity (MELK (human)): 49.2%
residual activity (SLK (human)): 78.6%
residual activity (PRKCB1 (human)): 90.4%
residual activity [2]: 66.7%
residual activity (CAMKK1 (human)): 63.3%
residual activity (PRKD3 (human)): 54.9%
residual activity (ABL2 (human)): 27.2%
residual activity (HIPK4 (human)): 99.8%
residual activity (ROCK1 (human)): 96.2%
residual activity (CAMK2B (human)): 93.4%
residual activity (SRMS (human)): 93.7%
residual activity (MET (human)): 89.2%
residual activity (CAMKK2 (human)): 84.2%
residual activity (PDGFRA (human)): 65.3%
residual activity (KDR (human)): 69.9%
residual activity (RPS6KA1 KD1 KD2 (human)): 30.1%
residual activity (SIK2 (human)): 78.3%
residual activity (WNK2 (human)): 96.6%
residual activity (MAP3K14 (human)): 77.1%
residual activity (DYRK1B (human)): 92%
residual activity (TNK2 (human)): 90.6%
residual activity [3]: 98.7%
residual activity (CDK1 CCNA2 (human)): 88.2%
residual activity (GRK4 (human)): 103%
residual activity (EPHA2 (human)): 101%
residual activity (NUAK2 (human)): 95.7%
residual activity (CDK4 CCND1 (human)): 91.5%
residual activity (CDK5 CDK5R1 p35 (human)): 57.3%
residual activity (STK25 (human)): 105%
residual activity (STK24 (human)): 70.4%
residual activity (BLK (human)): 49.7%
residual activity (CSF1R (human)): 97.7%
residual activity (PRKCD (human)): 89.7%
residual activity (SGK2 (human)): 94.3%
residual activity (EPHA5 (human)): 100%
residual activity (DYRK3 (human)): 115%
residual activity (ACVR1B (human)): 98.9%

COc1cc2ncnc(Nc3ccc(Oc4ccccc4)cc3)c2cc1OC
residual activity (FGFR2 (human)): 93.7%
residual activity [1]: 62.5%
residual activity (STK3 (human)): 121%
residual activity (MAP4K5 (human)): 70.6%
residual activity (MELK (human)): 101%
residual activity (SLK (human)): 88.7%
residual activity (PRKCB1 (human)): 109%
residual activity [2]: 107%
residual activity (CAMKK1 (human)): 93.1%
residual activity (PRKD3 (human)): 95.8%
residual activity (ABL2 (human)): 96.4%
residual activity (HIPK4 (human)): 91.8%
residual activity (ROCK1 (human)): 102%
residual activity (CAMK2B (human)): 98.2%
residual activity (SRMS (human)): 31.6%
residual activity (CAMKK2 (human)): 104%
residual activity (PDGFRA (human)): 88.8%
residual activity (KDR (human)): 92.1%
residual activity (RPS6KA1 KD1 KD2 (human)): 97.6%
residual activity (SIK2 (human)): 97.7%
residual activity (WNK2 (human)): 88.1%
residual activity (MAP3K14 (human)): 93%
residual activity (DYRK1B (human)): 97%
residual activity (TNK2 (human)): 49%
residual activity [3]: 105%
residual activity (CDK1 CCNA2 (human)): 92.2%
residual activity (GRK4 (human)): 97.1%
residual activity (EPHA2 (human)): 106%
residual activity (NUAK2 (human)): 137%
residual activity (CDK4 CCND1 (human)): 113%
residual activity (CDK5 CDK5R1 p35 (human)): 115%
residual activity (PRKCZ (human)): 100%
residual activity (STK25 (human)): 109%
residual activity (STK24 (human)): 91.6%
residual activity (BLK (human)): 9.95%
residual activity (CSF1R (human)): 100%
residual activity (PRKCD (human)): 96.8%
residual activity (SGK2 (human)): 113%
residual activity (EPHA5 (human)): 85.3%
residual activity (DYRK3 (human)): 103%
residual activity (ACVR1B (human)): 97.5%

Source: the kinase profiling compilation of Christmann-Franck et al. (2016)
